Measurements from ChEMBL document CHEMBL1201862, “PubChem BioAssay data set” (2004).
Calls of active or inactive are those of the source. Rule as the data show it, for most assays here: actives have a measured EC50 and inactives only a lower limit.

Tests used:
[1] = biological target: Fructose-bisphosphate aldolase (Mycobacterium tuberculosis, UniProt P9WQA3); assay: Fluorescence-based biochemical high throughput dose response assay for inhibitors of the fructose-bisphosphate aldolase (FBA) of M. tuberculosis.; type: functional
Chain of Fructose-bisphosphate aldolase (P9WQA3 whole entry): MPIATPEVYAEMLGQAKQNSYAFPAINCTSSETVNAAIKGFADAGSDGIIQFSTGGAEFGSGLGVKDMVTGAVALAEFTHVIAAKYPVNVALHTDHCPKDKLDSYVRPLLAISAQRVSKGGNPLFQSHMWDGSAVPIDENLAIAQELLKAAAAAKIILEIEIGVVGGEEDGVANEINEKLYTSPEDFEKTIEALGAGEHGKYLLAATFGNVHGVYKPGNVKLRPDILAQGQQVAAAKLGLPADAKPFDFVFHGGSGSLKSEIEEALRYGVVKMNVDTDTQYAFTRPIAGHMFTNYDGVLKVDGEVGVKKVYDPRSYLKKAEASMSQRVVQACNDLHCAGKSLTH

[2] = biological target: Beta-galactosidase (Escherichia coli, UniProt Q8VNN2); assay: Dose response counterscreen for EBI2 assay utilizing the enzyme, b-galactosidase.; type: functional
Chain of Beta-galactosidase (Q8VNN2 whole entry): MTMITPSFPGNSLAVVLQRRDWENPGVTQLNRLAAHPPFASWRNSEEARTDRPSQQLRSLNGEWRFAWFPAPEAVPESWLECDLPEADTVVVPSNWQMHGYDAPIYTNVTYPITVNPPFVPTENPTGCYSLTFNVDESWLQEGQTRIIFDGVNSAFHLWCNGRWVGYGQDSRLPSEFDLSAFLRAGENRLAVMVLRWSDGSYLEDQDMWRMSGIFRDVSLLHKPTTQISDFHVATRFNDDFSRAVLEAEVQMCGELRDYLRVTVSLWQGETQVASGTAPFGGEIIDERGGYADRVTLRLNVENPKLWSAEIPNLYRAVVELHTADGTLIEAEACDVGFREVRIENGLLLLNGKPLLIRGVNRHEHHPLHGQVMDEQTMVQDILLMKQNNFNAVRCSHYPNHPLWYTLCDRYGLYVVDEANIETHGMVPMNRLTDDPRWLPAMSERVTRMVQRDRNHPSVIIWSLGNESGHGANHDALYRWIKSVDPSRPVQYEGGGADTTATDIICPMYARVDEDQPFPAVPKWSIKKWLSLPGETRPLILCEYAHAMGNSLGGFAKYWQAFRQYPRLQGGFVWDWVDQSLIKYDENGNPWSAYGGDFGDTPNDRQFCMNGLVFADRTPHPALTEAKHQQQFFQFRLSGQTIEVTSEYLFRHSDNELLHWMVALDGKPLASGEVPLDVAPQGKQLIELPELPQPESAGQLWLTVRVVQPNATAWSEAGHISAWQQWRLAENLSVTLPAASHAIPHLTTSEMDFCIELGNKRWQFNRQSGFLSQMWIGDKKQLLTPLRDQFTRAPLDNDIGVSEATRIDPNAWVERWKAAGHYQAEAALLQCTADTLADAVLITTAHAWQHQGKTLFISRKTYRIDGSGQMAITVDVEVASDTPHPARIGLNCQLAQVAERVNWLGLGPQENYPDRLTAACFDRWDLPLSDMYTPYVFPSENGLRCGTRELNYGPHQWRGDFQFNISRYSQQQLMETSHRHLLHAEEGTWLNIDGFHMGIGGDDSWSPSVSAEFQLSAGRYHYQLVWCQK

[3] = system: HeLa; assay: HeLa cell cytotoxicity, dose response, cytotoxicity control, ATP luminescence, cherry-pick samples (AID 687004); type: functional, cell-based; conditions: Homo sapiens
[4] = inhibitors of firefly luciferase expression or activity, dose response, H4 neuroglioma cells, luminescence (AID 1990); type: functional, cell-based
[5] = system: Streptococcus sp. 'group A'; assay: growth inhibition of control SK(-) GAS strain, dose response, counter-screen for streptokinase expression inhibitor project, luminescence, kanamycin, BacTiterGlo, confirmation (AID 1900); type: functional, organism-based
[6] = system: BJ; assay: cytotoxicity toward BJ-TERT fibroblasts, dose response, cell-based, RAS-independent, luminescence (AID 1933); type: functional; conditions: Homo sapiens
[7] = Luminescence Cell-Based Dose Response HTS to Identify Inhibitors of 5'UTR Stem-Loop Driven Prion Protein mRNA Translation in H4 Neuroglioblastoma Cells. [Related pubchem assays: 1827 (Project Summary), 1813 (Primary HTS)]; type: functional
[8] = inhibitors of SNCA 5'UTR-driven reporter translation, confirmation, H4 neuroglioma cells, luminescence (AID 1988); type: functional, cell-based
[9] = biological target: T1, Streptokinase A (Streptococcus pyogenes serotype M1, UniProt P10520); assay: S. pyogenes streptokinase expression inhibitors, potency, dose response, plasminogen activation absorbance, OD405 (AID 1914); type: functional, Streptococcus pyogenes M1 GAS;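 also: secreted streptokinase activity via plasminogen activation per viability signal from cell pellet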
T1 sequence (P10520 whole entry): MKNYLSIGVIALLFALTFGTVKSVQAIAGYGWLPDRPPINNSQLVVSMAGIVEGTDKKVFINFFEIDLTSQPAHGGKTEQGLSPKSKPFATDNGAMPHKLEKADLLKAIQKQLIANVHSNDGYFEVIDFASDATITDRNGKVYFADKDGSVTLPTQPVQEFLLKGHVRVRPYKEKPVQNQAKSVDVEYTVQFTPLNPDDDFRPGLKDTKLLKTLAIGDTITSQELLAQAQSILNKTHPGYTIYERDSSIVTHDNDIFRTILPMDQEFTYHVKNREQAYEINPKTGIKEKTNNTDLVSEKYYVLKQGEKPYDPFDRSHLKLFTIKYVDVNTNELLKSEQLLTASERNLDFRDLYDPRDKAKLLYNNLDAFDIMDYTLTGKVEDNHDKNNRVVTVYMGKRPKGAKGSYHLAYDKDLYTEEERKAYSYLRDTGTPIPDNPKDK

[10] = system: BJ; assay: cells; type: functional, cell-based; conditions: Homo sapiens
[11] = system: BJ; assay: cytotoxicity toward BJ-TERT-LT-ST fibroblasts, dose response, cell-based, RAS-independent, luminescence (AID 1935); type: functional; conditions: Homo sapiens;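 also: BJ fibroblasts immortalized with TERT plus LT and ST oncogenes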
[12] = cytotoxicity toward DRD oncogenic fibroblasts, dose response, cell-based, non-viral oncogenic, luminescence (AID 1934); type: functional; conditions: Homo sapiens
[13] = system: Streptococcus; assay: Group A Streptococcus viability loss, dose response, counter-screen for streptokinase expression inhibitor project, luminescence, BacTiterGlo (AID 1915); type: functional, organism-based;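 also: potency for reduction of bacterial viability or growth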
[14] = biological target: T2, Replicative DNA helicase DnaB (Mycobacterium tuberculosis, UniProt P9WMR3); assay: DnaB intein splicing inhibitors, dose response, biochemical, cell-free fluorescence (AID 449749); type: functional
T2 sequence (P9WMR3 whole entry): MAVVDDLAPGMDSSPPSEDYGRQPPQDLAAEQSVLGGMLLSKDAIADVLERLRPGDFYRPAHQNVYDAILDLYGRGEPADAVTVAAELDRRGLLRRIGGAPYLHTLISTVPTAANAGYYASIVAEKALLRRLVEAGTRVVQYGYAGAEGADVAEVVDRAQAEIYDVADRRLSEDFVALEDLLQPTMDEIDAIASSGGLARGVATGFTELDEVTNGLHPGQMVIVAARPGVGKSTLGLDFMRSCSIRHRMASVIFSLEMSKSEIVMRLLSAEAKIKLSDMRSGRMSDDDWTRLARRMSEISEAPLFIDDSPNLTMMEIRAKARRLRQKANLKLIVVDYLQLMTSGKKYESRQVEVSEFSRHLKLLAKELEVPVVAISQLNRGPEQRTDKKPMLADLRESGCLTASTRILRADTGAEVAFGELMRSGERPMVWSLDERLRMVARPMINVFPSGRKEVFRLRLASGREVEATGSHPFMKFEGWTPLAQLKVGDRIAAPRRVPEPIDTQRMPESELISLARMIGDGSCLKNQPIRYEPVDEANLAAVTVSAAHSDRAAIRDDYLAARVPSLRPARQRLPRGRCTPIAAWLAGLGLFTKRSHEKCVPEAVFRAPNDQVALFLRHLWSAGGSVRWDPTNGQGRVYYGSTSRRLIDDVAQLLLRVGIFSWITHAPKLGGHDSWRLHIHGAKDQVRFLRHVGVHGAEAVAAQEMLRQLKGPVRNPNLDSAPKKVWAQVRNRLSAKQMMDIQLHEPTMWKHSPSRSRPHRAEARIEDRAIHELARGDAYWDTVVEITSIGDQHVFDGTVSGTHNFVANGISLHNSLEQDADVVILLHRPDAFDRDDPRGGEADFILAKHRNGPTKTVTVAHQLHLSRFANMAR

[15] = biological target: T3, Protein RecA (Mycobacterium tuberculosis, UniProt P9WHJ3); assay: Fluorescence Cell-Free Homogeneous Dose Retest to Identify Inhibitors of RecA-Intein Splicing Activity. [Related pubchem assays (depositor defined):AID2097, AID2223, AID489010, AID492950]; type: functional
T3 sequence (P9WHJ3 whole entry): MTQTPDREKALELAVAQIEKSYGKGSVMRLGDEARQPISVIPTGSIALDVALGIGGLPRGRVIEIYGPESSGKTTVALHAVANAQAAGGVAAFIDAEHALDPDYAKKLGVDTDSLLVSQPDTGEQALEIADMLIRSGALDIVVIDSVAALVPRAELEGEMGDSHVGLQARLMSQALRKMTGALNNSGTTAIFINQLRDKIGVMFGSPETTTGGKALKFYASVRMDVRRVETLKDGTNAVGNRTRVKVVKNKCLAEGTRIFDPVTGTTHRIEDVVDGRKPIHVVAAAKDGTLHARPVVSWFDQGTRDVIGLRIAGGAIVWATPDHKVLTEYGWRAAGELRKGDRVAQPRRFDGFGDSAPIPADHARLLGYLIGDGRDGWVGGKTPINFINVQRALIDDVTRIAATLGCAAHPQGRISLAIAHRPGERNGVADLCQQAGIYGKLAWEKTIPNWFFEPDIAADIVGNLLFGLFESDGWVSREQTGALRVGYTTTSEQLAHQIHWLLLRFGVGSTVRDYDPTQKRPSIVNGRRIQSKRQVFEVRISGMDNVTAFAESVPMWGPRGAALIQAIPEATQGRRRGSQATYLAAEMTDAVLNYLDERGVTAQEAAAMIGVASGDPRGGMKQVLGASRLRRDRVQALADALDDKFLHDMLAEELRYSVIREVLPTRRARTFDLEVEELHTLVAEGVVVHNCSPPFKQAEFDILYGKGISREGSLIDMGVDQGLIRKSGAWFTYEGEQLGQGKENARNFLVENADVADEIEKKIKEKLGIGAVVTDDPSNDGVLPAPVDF

[16] = system: INS1; assay: beta cell apoptosis inhibitors, cytokine rescue, dose response, luminescence, retest (AID 449756); type: functional, cell-based; conditions: Rattus norvegicus;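 also: cell death triggered by IL-1 beta plus TNF-alpha plus IFN-gamma mixture; protective hits raise ATP signal compared with cytokine alone wells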
[17] = T. cruzi growth inhibition in host cells, dose response, cell-based, plate reader, dry powder, set 2 (AID 652275); type: functional
[18] = biological target: Hepatocyte nuclear factor 4-alpha (Homo sapiens, UniProt P41235); type: functional, cell-based;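 also: biochemical luminescence-based dose-response counterscreen measuring inhibition of HNF4 dimerization, run alongside a screen for blockers of ABHD5–perilipin-5 interaction; split luciferase complementation of HNF4 fusion proteins in cell lysate measuring dimerization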
Chain of Hepatocyte nuclear factor 4-alpha (P41235 whole entry, the tested form may be a part): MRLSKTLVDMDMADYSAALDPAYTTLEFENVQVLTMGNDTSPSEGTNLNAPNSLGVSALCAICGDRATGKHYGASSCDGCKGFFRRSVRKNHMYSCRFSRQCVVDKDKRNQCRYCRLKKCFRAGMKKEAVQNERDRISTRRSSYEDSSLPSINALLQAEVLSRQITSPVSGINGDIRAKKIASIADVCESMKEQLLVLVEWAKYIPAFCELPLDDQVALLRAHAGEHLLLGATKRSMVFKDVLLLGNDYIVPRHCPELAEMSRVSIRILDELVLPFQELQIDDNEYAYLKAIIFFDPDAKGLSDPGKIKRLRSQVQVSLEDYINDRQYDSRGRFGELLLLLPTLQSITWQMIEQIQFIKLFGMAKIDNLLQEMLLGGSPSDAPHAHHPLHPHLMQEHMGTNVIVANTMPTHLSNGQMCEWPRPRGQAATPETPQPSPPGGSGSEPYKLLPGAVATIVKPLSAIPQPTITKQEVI

Cc1ccc(-c2cc(C(=O)O)c3cc(Br)ccc3n2)s1
IC50 [1]: > 1.11 µM (active)

CCc1cc2cc(C(=O)N3CCN(Cc4ccccc4)CC3)sc2s1
IC50 [2]: > 80 µM (inactive)

CC(=O)c1sc(NC(=O)c2cc(-c3ccccc3)nn2-c2ccccc2)nc1C
AC50 [3]: > 52 µM (inactive)

Cc1ccc(-c2cc(-c3ccc(C)cc3)[n+](-c3ccc(C(=O)[O-])cc3)c(-c3ccc(C)cc3)c2)cc1
EC50 [4]: > 120 µM (not active)
EC50 [5]: 12.6 µM (active)
EC50 [6]: 2.76 µM (active)
EC50 [7]: 63.5 µM (active)
EC50 [8]: > 120 µM (not active)
EC50 [9]: > 150 µM (not active)
EC50 [10]: 13.6 µM (active)
EC50 [11]: 14.9 µM (inconclusive)
EC50 [12]: 8.62 µM (inconclusive)
EC50 [13]: > 150 µM (not active)
AC50 [14]: 38.2 µM (active)
EC50 [15]: 40.5 µM (active)
AC50 [16]: 6.34 µM (active)
IC50 [1]: 1.86 µM (active)

CC(C)N1C[C@H](CN(C)Cc2ccc(Oc3ccccc3)cc2)Oc2c(NC(=O)c3ccncc3)cccc2C1=O
AC50 [17]: 0.00193 µM (active)

COc1ccc(C(C(=O)Nc2ccc3c(c2)OCCO3)n2c(=O)c(-c3ccco3)nc3ccccc32)cc1 (stereo not given)
IC50 [18]: 12.5 µM (inactive)

CC(C)NC(=O)Nc1ccc2c(c1)C(=O)N([C@@H](C)CO)C[C@H](C)[C@@H](CN(C)Cc1ccc3c(c1)OCO3)OCCCC[C@@H](C)O2
AC50 [3]: 19.5 µM (active)
